# Earlier results, collected in patent publication US7141235B2, “Stabilized gas emulsion containing phospholipid for ultrasound contrast enhancement” (Imcor Pharmaceutical Co., priority 1993, dated 2006).
# Details: in water
row,gel to liquid-crystal phase transition temperature,Compound
1,55.5 °C,"CCCCCCCCCCCCCCCCCC(=O)OC[C@H](COP(=O)([O-])OCC[N+](C)(C)C)OC(=O)CCCCCCCCCCCCCCCCC [DSPC, distearoyl phosphatidylcholine]"
2,23.5 °C,"CCCCCCCCCCCCCC(=O)OC[C@H](COP(=O)([O-])OCC[N+](C)(C)C)OC(=O)CCCCCCCCCCCCC [DMPC, dimyristoyl phosphatidylcholine]"
